Experimental data published in ChEMBL document CHEMBL4665641, “Lead optimization and efficacy evaluation of quinazoline-based BET family inhibitors for potential treatment of cancer and inflammatory diseases” (Bioorg Med Chem Lett, 2019).

How the values were obtained:
[1] = tested on: MV4-11; assay: Cytotoxicity against human MV4-11 cells assessed as inhibition of cell viability; type: functional, cell-based
[2] = target: T1, Bromodomain-containing protein 4 (Homo sapiens, UniProt O60885); assay: Competitive binding affinity to human partial length BRD4 (BD1,2) (N44 to E460 residues) expressed in bacterial expression system by BROMOscan assay
[3] = Oral bioavailability in CD-1 mouse at 10 mg/kg; type: ADME, organism-based; conditions: CD-1, mouse, in vivo
[4] = Plasma clearance in CD-1 mouse at 2 mg/kg, iv; type: ADME, organism-based
[5] = target: T1, Bromodomain-containing protein 4; assay: Inhibition of human full-length recombinant N-terminal His-tagged BRD4 (2 to 1362 residues) expressed in Sf9 cells using histone H4 peptide containing acetylated lysine residues as substrate preincubated with enzyme for 30 mins followed by incubation with substrate for 30 mins by Alphascreen assay […]
[6] = Cmax in CD-1 mouse at 2 mg/kg, iv measured after 5 mins; type: ADME, organism-based; parameters: route intravenous, dose 2 mg/kg; conditions: CD-1, mouse, in vivo, read-out: Cmax
[7] = Cmax in CD-1 mouse at 10 mg/kg, po; type: ADME, organism-based; parameters: route oral, dose 10 mg/kg; conditions: in vivo
[8] = Volume of distribution at steady state in CD-1 mouse at 2 mg/kg, iv; type: ADME, organism-based; conditions: in vivo, read-out: Vdss
[9] = Half life in CD-1 mouse at 2 mg/kg, iv; type: ADME, organism-based; conditions: in vivo
[10] = AUC(0 to infinity) in CD-1 mouse at 2 mg/kg, iv; type: ADME, organism-based; parameters: time infinity, route intravenous, dose 2 mg/kg; conditions: in vivo; for AUC(0-inf): CD-1, mouse; for AUC: mouse
[11] = AUC(0 to infinity) in CD-1 mouse at 10 mg/kg, po; type: ADME, organism-based; parameters: route oral, time infinity, dose 10 mg/kg; conditions: CD-1, mouse, in vivo
[12] = Half life in CD-1 mouse at 10 mg/kg, po; type: ADME, organism-based; conditions: in vivo
[13] = Stability in mouse liver microsomes assessed as half life; type: ADME, Microsome
[14] = tested on: Kasumi 1; assay: Antitumor activity against human Kasumi-1 cells xenografted in CB17 SCID mouse assessed as inhibition of tumor growth at 10 mg/kg, po QD for 29 days; type: functional; conditions: Kasumi 1, po, 696 h, time 29 day, read-out: TGI
[15] = tested on: Kasumi 1; assay: Antitumor activity against human Kasumi-1 cells xenografted in CB17 SCID mouse assessed as tumor volume at 10 mg/kg, po QD for 29 days (reference value: 1734 +/- 220 mm3); type: functional; conditions: time 29 day
[16] = tested on: Kasumi 1; assay: Antitumor activity against human Kasumi-1 cells xenografted in CB17 SCID mouse assessed as tumor weight at 10 mg/kg, po QD for 29 days (reference value: 2.1+/- 0.3 g); type: functional; conditions: time 29 day

Cn1cc(-c2ccc3nc(-c4cnn(CC(C)(C)O)c4)nc(N4CCOC[C@@H]4c4ccc(Cl)cc4)c3c2)ccc1=O
IC50 [1]: 1140 nM
Kd [2]: 119 nM

Cc1noc(C)c1-c1ccc2nc(-c3cnn(CC(C)(C)O)c3)nc(N3CCOC[C@@H]3c3ccc(Cl)cc3)c2c1
bioavailability [3]: 44%
clearance [4]: 5.9 mL/min/kg
IC50 [5]: 155 nM
Cmax [6]: 1800 ng/mL
Cmax ([7]; CD-1, mouse, read-out: Cmax): 1120 ng/mL
Vd [8]: 1.58 L/kg
half-life [9]: 144 min
IC50 [1]: 1600 nM
Kd [2]: 305 nM
AUC(0-inf) [10]: 5720 ng·h/mL
AUC(0-inf) [11]: 12600 ng·h/mL
half-life [12]: 168 min

Cc1noc(C)c1-c1ccc2nc(-c3cnn(CC(=O)N(C)C)c3)nc(N3CCOC[C@@H]3c3ccccc3)c2c1
IC50 [1]: 1800 nM
Kd [2]: 110 nM

Cc1noc(C)c1-c1ccc2nc(-c3cnn(CC(C)(C)O)c3)nc(N3CCN(S(C)(=O)=O)C[C@@H]3c3ccccc3)c2c1
bioavailability [3]: 86%
clearance [4]: 6.9 mL/min/kg
IC50 [5]: 90 nM
Cmax [6]: 2580 ng/mL
Cmax ([7]; CD-1, mouse, read-out: Cmax): 2670 ng/mL
Vd [8]: 0.82 L/kg
half-life [9]: 84 min
IC50 [1]: 1130 nM
Kd [2]: 68 nM
AUC(0-inf) [10]: 4950 ng·h/mL
AUC(0-inf) [11]: 21200 ng·h/mL
half-life [12]: 102 min

Cc1noc(C)c1-c1ccc2nc(-c3cnn(CC(C)(C)O)c3)nc(N3CCOC[C@H]3c3ccccc3)c2c1
IC50 [1]: 1730 nM
Kd [2]: 260 nM

Cc1noc(C)c1-c1ccc2nc(N3CCC4(CCN(C)C4=O)CC3)nc(N3CCOC[C@@H]3c3ccccc3)c2c1
IC50 [1]: 1360 nM
Kd [2]: 110 nM

Cc1noc(C)c1-c1ccc2nc(-c3cnn(CC(C)(C)O)c3)nc(N3CCOC[C@@H]3c3cccs3)c2c1
bioavailability [3]: 72%
clearance [4]: 7.3 mL/min/kg
IC50 [5]: 364 nM
Cmax [6]: 1580 ng/mL
Cmax ([7]; CD-1, mouse, read-out: Cmax): 2220 ng/mL
Vd [8]: 1.01 L/kg
half-life [9]: 84 min
IC50 [1]: 1950 nM
Kd [2]: 220 nM
AUC(0-inf) [10]: 4940 ng·h/mL
AUC(0-inf) [11]: 17700 ng·h/mL
half-life [12]: 144 min

CC(=O)N1CCN(c2nc(N3CCOC[C@@H]3c3ccccc3)c3cc(-c4c(C)noc4C)ccc3n2)CC1
IC50 [1]: 1430 nM
Kd [2]: 42 nM

Cc1noc(C)c1-c1ccc2nc(N3CCC4(CCC(=O)N4C)CC3)nc(N3CCOC[C@@H]3c3ccccc3)c2c1
IC50 [1]: 1380 nM
Kd [2]: 51 nM

Cc1noc(C)c1-c1ccc2nc(-c3cnn(CC(C)(C)O)c3)nc(N3CCOC[C@@H]3C3CCCC3)c2c1
IC50 [1]: 1540 nM
Kd [2]: 155 nM
t1/2 [13]: 2 min

Cn1cc(-c2ccc3nc(-c4cnn(CC(C)(C)O)c4)nc(N4CCOC[C@@H]4C4CCCCC4)c3c2)ccc1=O
IC50 [1]: 530 nM
Kd [2]: 25 nM

Cc1noc(C)c1-c1ccc2nc(-c3cnn(C(C)(C)CO)c3)nc(N3CCOC[C@@H]3c3ccccc3)c2c1
IC50 [1]: 1970 nM
Kd [2]: 87 nM

Cc1noc(C)c1-c1ccc2nc(-c3cnn(CC(C)(C)O)c3)nc(N3CCNC[C@@H]3c3ccccc3)c2c1
IC50 [1]: 590 nM
Kd [2]: 88 nM
AUC [10]: 123 ng·h/mL

CNC(=O)C1CCN(c2nc(N3CCOC[C@@H]3c3ccccc3)c3cc(-c4c(C)noc4C)ccc3n2)CC1
IC50 [1]: 970 nM
Kd [2]: 73 nM

Cc1noc(C)c1-c1ccc2nc(-c3cnn(CCO)c3)nc(N3CCOCC3c3ccccc3)c2c1 (stereo unspecified)
IC50 [5]: 72 nM
Cmax ([7]; mouse): 934 ng/mL

Cc1cc(-c2ccc3nc(-c4cnn(CC(C)(C)O)c4)nc(N4CCOC[C@@H]4c4ccc(F)cc4)c3c2)cn(C)c1=O
bioavailability [3]: 123%
clearance [4]: 4.5 mL/min/kg
IC50 [5]: 6 nM
inhibition in vivo at 10 mg/kg [14]: 41%
Cmax [6]: 2260 ng/mL
Cmax ([7]; CD-1, mouse, read-out: Cmax): 3180 ng/mL
Vd [8]: 1.08 L/kg
half-life [9]: 156 min
Activity [15]: 977 mm3
Kd [2]: 20 nM
Activity [16]: 1.24 g
AUC(0-inf) [10]: 7400 ng·h/mL
AUC(0-inf) [11]: 45700 ng·h/mL
half-life [12]: 252 min

CNC(=O)Cn1cc(-c2nc(N3CCOC[C@@H]3c3ccccc3)c3cc(-c4c(C)noc4C)ccc3n2)cn1
IC50 [1]: 1010 nM
Kd [2]: 85 nM

Cc1noc(C)c1-c1ccc2nc(-c3cnn(CC(N)=O)c3)nc(N3CCOC[C@@H]3c3ccccc3)c2c1
IC50 [1]: 2020 nM
Kd [2]: 120 nM

Cn1cc(-c2ccc3nc(-c4cnn(CC(C)(C)O)c4)nc(N4CCOC[C@@H]4c4cccs4)c3c2)ccc1=O
bioavailability [3]: 83%
clearance [4]: 6.4 mL/min/kg
IC50 [5]: 165 nM
Cmax [6]: 2040 ng/mL
Cmax ([7]; CD-1, mouse, read-out: Cmax): 2090 ng/mL
Vd [8]: 1.08 L/kg
half-life [9]: 138 min
IC50 [1]: 980 nM
Kd [2]: 300 nM
AUC(0-inf) [10]: 5550 ng·h/mL
AUC(0-inf) [11]: 22900 ng·h/mL
half-life [12]: 96 min

Cc1noc(C)c1-c1ccc2nc(-c3cnn(CCO)c3)nc(N3CCOC[C@@H]3c3ccccc3)c2c1
Kd [2]: 99 nM

Cc1noc(C)c1-c1ccc2nc(-c3cnn(CC(C)(C)O)c3)nc(N3CCOC[C@@H]3C3CCCCC3)c2c1
IC50 [1]: 1430 nM
Kd [2]: 123 nM
t1/2 [13]: 4 min

Cn1cc(-c2ccc3nc(-c4cnn(CC(C)(C)O)c4)nc(N4CCOC[C@@H]4c4ccc(F)cc4)c3c2)ccc1=O
IC50 [1]: 870 nM
Kd [2]: 160 nM

Cn1cc(-c2ccc3nc(-c4cnn(CC(C)(C)O)c4)nc(N4CCOC[C@@H]4C4CC4)c3c2)ccc1=O
IC50 [1]: 2350 nM
Kd [2]: 2200 nM

Cc1noc(C)c1-c1ccc2nc(C(=O)NC3CCN(C)CC3)nc(N3CCOC[C@@H]3c3ccccc3)c2c1
IC50 [1]: 1600 nM
Kd [2]: 210 nM

Cn1cc(-c2ccc3nc(-c4cnn(CC(C)(C)O)c4)nc(N4CCOC[C@@H]4c4ccccc4)c3c2)ccc1=O
bioavailability [3]: 118%
clearance [4]: 12.3 mL/min/kg
IC50 [5]: 57 nM
Cmax [6]: 1860 ng/mL
Cmax ([7]; CD-1, mouse, read-out: Cmax): 1980 ng/mL
Vd [8]: 1.89 L/kg
half-life [9]: 132 min
IC50 [1]: 740 nM
Kd [2]: 69 nM
AUC(0-inf) [10]: 2730 ng·h/mL
AUC(0-inf) [11]: 16100 ng·h/mL
half-life [12]: 90 min

CC(=O)N1CCN(c2nc(-c3cnn(CC(C)(C)O)c3)nc3ccc(-c4c(C)noc4C)cc23)[C@@H](c2ccccc2)C1
bioavailability [3]: 95%
clearance [4]: 7.3 mL/min/kg
IC50 [5]: 140 nM
Cmax [6]: 2450 ng/mL
Cmax ([7]; CD-1, mouse, read-out: Cmax): 3450 ng/mL
Vd [8]: 0.72 L/kg
half-life [9]: 90 min
IC50 [1]: 850 nM
Kd [2]: 81 nM
AUC(0-inf) [10]: 4640 ng·h/mL
AUC(0-inf) [11]: 21900 ng·h/mL
half-life [12]: 102 min

Cc1noc(C)c1-c1ccc2nc(N3CCN(CCN(C)C)CC3)nc(N3CCOC[C@H]3c3ccccc3)c2c1
IC50 [1]: 1280 nM

Cc1noc(C)c1-c1ccc2nc(-c3cnn(CC(C)(C)O)c3)nc(N3CCOC[C@@H]3C3CCC3)c2c1
IC50 [1]: 2200 nM
Kd [2]: 195 nM
t1/2 [13]: 18 min

Cc1noc(C)c1-c1ccc2nc(N3CCN(CCN(C)C)CC3)nc(N3CCOC[C@@H]3c3ccccc3)c2c1
IC50 [1]: 690 nM
AUC [10]: 585 ng·h/mL

Cc1cc(-c2ccc3nc(-c4cnn(CC(C)(C)O)c4)nc(N4CCOC[C@@H]4C4CC4)c3c2)cn(C)c1=O
Kd [2]: 70 nM

Cc1noc(C)c1-c1ccc2nc(-c3cnn(CC(C)(C)O)c3)nc(N3CCOC[C@@H]3c3ccc(F)cc3)c2c1
bioavailability [3]: 90%
clearance [4]: 5.9 mL/min/kg
IC50 [5]: 13 nM
Cmax [6]: 1590 ng/mL
Cmax ([7]; CD-1, mouse, read-out: Cmax): 2080 ng/mL
Vd [8]: 1.47 L/kg
half-life [9]: 156 min
IC50 [1]: 1270 nM
Kd [2]: 58 nM
AUC(0-inf) [10]: 5790 ng·h/mL
AUC(0-inf) [11]: 26100 ng·h/mL
t1/2 [13]: 52 min
half-life [12]: 168 min
